Test results as given in patent EP4603105A1, “PHARMACEUTICAL COMPOSITION CONTAINING CYCLIC COMPOUND HAVING SELECTIVE KRAS INHIBITORY EFFECT AGAINST HRAS AND NRAS” (CHUGAI SEIYAKU KABUSHIKI KAISHA, priority 2022, dated 2024).
*1 amine or outer side, *2 acyl side, *3 side chain or, on linkers, in order; H or OH if unused. Where a SMILES comes first, the peptide text is derived from it. Bridges are numbered along the chain shown (N, C = ends). [ ]: non-standard residue; d: D form. The star is where a group is joined. hPhe(3-Cl-4-CF3) = N[C@@H](CCc1ccc(C(F)(F)F)c(Cl)c1)C(=O)O; NPrPhe(4-CF3) = CCCN[C@@H](Cc1ccc(C(F)(F)F)cc1)C(=O)O; NEtPhe(4-CF3) = CCN[C@@H](Cc1ccc(C(F)(F)F)cc1)C(=O)O; hPhe(3,4-Cl2) = N[C@@H](CCc1ccc(Cl)c(Cl)c1)C(=O)O; X26 = CCCN([C@@H](Cc1ccc(F)cc1)C(=O)[*:2])[*:1]; NMeGly(cPent) = CN[C@H](C(=O)O)C1CCCC1; NMeD = CN[C@@H](CC(=O)O)C(=O)O; NMeL = CN[C@@H](CC(C)C)C(=O)O; Ac6c = NC1(C(=O)O)CCCCC1; Morpholide = C1CN(*)CCO1; NMeA = CN[C@@H](C)C(=O)O; Ac5c = NC1(C(=O)O)CCCC1; Aze = O=C(O)[C@@H]1CCN1; Ac3c = NC1(C(=O)O)CC1; Aib = CC(C)(N)C(=O)O; Sar = CNCC(=O)O

Key:
[1] = biological target: HRAS wild-type protein (Homo sapiens, UniProt P01112); experiment: Binding to HRAS by surface plasmon resonance (SPR), KD and KD ratio to KRAS; settings: ratio of KD for HRAS wild-type protein to KD for KRAS
Summary of the method: (§1)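 Compound binding is evaluated by SPR single-cycle kinetics, with concentrations added intermittently from low to high for 75 s each. Target surfaces carry GDP-loaded biotinylated Avi-RAS at about 100–300 RU, regenerated after each cycle; temperature 30°C. A 1:1 binding model gives KD.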

[2] = test system: human lung cancer strain NCI-H441; format: cell-based
Summary of the method: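 Proliferation was scored by […] measured after the reagent was added to cultures kept at 37°C in 5% carbon dioxide.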

[3] = biological target: GDP-bound NRAS wild-type protein (Homo sapiens, UniProt P01111); experiment: Binding to NRAS by surface plasmon resonance (SPR), KD and KD ratio to KRAS; settings: ratio of KD for GDP-bound NRAS wild-type protein to KD for KRAS
Summary of the method: as §1

Chain of HRAS wild-type protein (P01112 whole entry): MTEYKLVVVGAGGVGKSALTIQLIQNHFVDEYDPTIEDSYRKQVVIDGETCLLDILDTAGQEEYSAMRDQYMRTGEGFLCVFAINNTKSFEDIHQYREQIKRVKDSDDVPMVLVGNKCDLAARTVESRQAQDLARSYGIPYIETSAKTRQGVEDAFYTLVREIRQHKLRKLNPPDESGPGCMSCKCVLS
Chain of GDP-bound NRAS wild-type protein (P01111 whole entry): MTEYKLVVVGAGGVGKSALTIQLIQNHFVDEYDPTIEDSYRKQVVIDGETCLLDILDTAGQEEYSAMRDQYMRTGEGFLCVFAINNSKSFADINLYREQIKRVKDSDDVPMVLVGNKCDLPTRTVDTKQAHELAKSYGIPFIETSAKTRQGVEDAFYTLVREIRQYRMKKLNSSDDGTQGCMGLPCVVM

Structure (SMILES)	HRAS /KRAS [1]	IC50 [2] [nM]	NRAS /KRAS [3]
CCCN1C(=O)[C@@H]2CCN2C(=O)[C@H](C)N(C)C(=O)[C@H]([C@@H](C)CC)NC(=O)[C@H](CC(C)C)N(C)C(=O)C[C@@H](C(=O)N2CCOCC2)N(C)C(=O)[C@H](C2CCCC2)N(C)C(=O)C2(CCCC2)NC(=O)[C@@H]2CCCN2C(=O)[C@H](CCc2ccc(C(F)(F)F)c(Cl)c2)NC(=O)CN(C)C(=O)[C@@H]1Cc1ccc(F)cc1 [PP0219] ([NMeL]I[NMeA][Aze][X26][Sar][hPhe(3-Cl-4-CF3)]P[Ac5c][NMeGly(cPent)][NMeD]-Morpholide; lactam N-11)	B (a compound having 3 or more and less than 10 is denoted as B)	2.2	C (A compound having a KD ratio of 0.1 or more and less than 3 is denoted as C)
CC[C@H](C)[C@@H]1NC(=O)[C@H](CC(C)C)N(C)C(=O)C[C@@H](C(=O)N2CCOCC2)N(C)C(=O)[C@H](C2CCCC2)N(C)C(=O)C2(CC2)NC(=O)[C@@H]2CCCN2C(=O)[C@H](CCc2ccc(C(F)(F)F)c(Cl)c2)NC(=O)CN(C)C(=O)[C@H](Cc2ccc(C(F)(F)F)cc2)N(CC)C(=O)[C@@H]2CCN2C(=O)[C@H](C)N(C)C1=O [PP0220] ([NMeL]I[NMeA][Aze][NEtPhe(4-CF3)][Sar][hPhe(3-Cl-4-CF3)]P[Ac3c][NMeGly(cPent)][NMeD]-Morpholide; lactam N-11)	C (A compound having a KD ratio of 0.1 or more and less than 3 is denoted as C)	7.7	C (A compound having a KD ratio of 0.1 or more and less than 3 is denoted as C)
CC[C@H](C)[C@@H]1NC(=O)[C@H](CC(C)C)N(C)C(=O)C[C@@H](C(=O)N2CCOCC2)N(C)C(=O)[C@H](C2CCCC2)N(C)C(=O)C(C)(C)NC(=O)[C@@H]2CCCN2C(=O)[C@H](CCc2ccc(C(F)(F)F)c(Cl)c2)NC(=O)CN(C)C(=O)[C@H](Cc2ccc(C(F)(F)F)cc2)N(CC)C(=O)[C@@H]2CCN2C(=O)[C@H](C)N(C)C1=O [PP0221] ([NMeL]I[NMeA][Aze][NEtPhe(4-CF3)][Sar][hPhe(3-Cl-4-CF3)]P[Aib][NMeGly(cPent)][NMeD]-Morpholide; lactam N-11)	C (A compound having a KD ratio of 0.1 or more and less than 3 is denoted as C)	2.9	C (A compound having a KD ratio of 0.1 or more and less than 3 is denoted as C)
CC[C@H](C)[C@@H]1NC(=O)[C@H](CC(C)C)N(C)C(=O)C[C@@H](C(=O)N2CCOCC2)N(C)C(=O)[C@H](C2CCCC2)N(C)C(=O)C2(CCCCC2)NC(=O)[C@@H]2CCCN2C(=O)[C@H](CCc2ccc(C(F)(F)F)c(Cl)c2)NC(=O)CN(C)C(=O)[C@H](Cc2ccc(C(F)(F)F)cc2)N(CC)C(=O)[C@@H]2CCN2C(=O)[C@H](C)N(C)C1=O [PP0222] ([NMeL]I[NMeA][Aze][NEtPhe(4-CF3)][Sar][hPhe(3-Cl-4-CF3)]P[Ac6c][NMeGly(cPent)][NMeD]-Morpholide; lactam N-11)	C (A compound having a KD ratio of 0.1 or more and less than 3 is denoted as C)	17.1	C (A compound having a KD ratio of 0.1 or more and less than 3 is denoted as C)
CC[C@H](C)[C@@H]1NC(=O)[C@H](CC(C)C)N(C)C(=O)C[C@@H](C(=O)N2CCOCC2)N(C)C(=O)[C@H](C2CCCC2)N(C)C(=O)C2(CCCC2)NC(=O)[C@@H]2CCCN2C(=O)[C@H](CCc2ccc(Cl)c(Cl)c2)NC(=O)CN(C)C(=O)[C@H](Cc2ccc(C(F)(F)F)cc2)N(CC)C(=O)[C@@H]2CCN2C(=O)[C@H](C)N(C)C1=O [PP0223] ([NMeL]I[NMeA][Aze][NEtPhe(4-CF3)][Sar][hPhe(3,4-Cl2)]P[Ac5c][NMeGly(cPent)][NMeD]-Morpholide; lactam N-11)	C (A compound having a KD ratio of 0.1 or more and less than 3 is denoted as C)	5	C (A compound having a KD ratio of 0.1 or more and less than 3 is denoted as C)
CCCN1C(=O)[C@@H]2CCN2C(=O)[C@H](C)N(C)C(=O)[C@H]([C@@H](C)CC)NC(=O)[C@H](CC(C)C)N(C)C(=O)C[C@@H](C(=O)N2CCOCC2)N(C)C(=O)[C@H](C2CCCC2)N(C)C(=O)C2(CC2)NC(=O)[C@@H]2CCCN2C(=O)[C@H](CCc2ccc(C(F)(F)F)c(Cl)c2)NC(=O)CN(C)C(=O)[C@@H]1Cc1ccc(C(F)(F)F)cc1 [PP0224] ([NMeL]I[NMeA][Aze][NPrPhe(4-CF3)][Sar][hPhe(3-Cl-4-CF3)]P[Ac3c][NMeGly(cPent)][NMeD]-Morpholide; lactam N-11)	B (a compound having 3 or more and less than 10 is denoted as B)	2	C (A compound having a KD ratio of 0.1 or more and less than 3 is denoted as C)
CCCN1C(=O)[C@@H]2CCN2C(=O)[C@H](C)N(C)C(=O)[C@H]([C@@H](C)CC)NC(=O)[C@H](CC(C)C)N(C)C(=O)C[C@@H](C(=O)N2CCOCC2)N(C)C(=O)[C@H](C2CCCC2)N(C)C(=O)C(C)(C)NC(=O)[C@@H]2CCCN2C(=O)[C@H](CCc2ccc(C(F)(F)F)c(Cl)c2)NC(=O)CN(C)C(=O)[C@@H]1Cc1ccc(C(F)(F)F)cc1 [PP0225] ([NMeL]I[NMeA][Aze][NPrPhe(4-CF3)][Sar][hPhe(3-Cl-4-CF3)]P[Aib][NMeGly(cPent)][NMeD]-Morpholide; lactam N-11)	C (A compound having a KD ratio of 0.1 or more and less than 3 is denoted as C)	2.4	C (A compound having a KD ratio of 0.1 or more and less than 3 is denoted as C)
